Assay results from patent US7968543B2 (priority 2007, dated 2011).
Entries after “also recorded” stand apart in the source; their conditions may differ. Read-outs that look alike come from different tables or passages of the source.

Experiments:
[1] = in vivo; settings: mouse, plasma, oral, 1 mg/kg
[2] = mouse, in vivo, 1 mg/kg
[3] = Phase I clinical trial, safety and tolerability
Description: (§1) The study was open labeled and designed to determine the safety, tolerability, dose limiting toxicity (DLT), pharmacokinetics and pharmacodynamics of escalating doses. […] If two or more patients in the expanded cohort experiences first course DLT, no further patients will enroll at that dose and the next lower dose level will be declared the maximum tolerated dose (MTD). Primary endpoints for the study are safety, tolerability, dose limiting toxicity (DLT), and PK. Secondary endpoint is PD.

[4] = tested on: RS4-11 cell line; settings: read-out: IC50 (nM), Proliferation, RS 4, 48 hour incubation
[5] = Phase I clinical trial, human oral pharmacokinetics; settings: in vivo, 12 mg
[6] = Ninety-day toxicity study in dogs; format: in vivo, dog
Protocol: (§2) For rats, the compound was administered at a dose of 1, 3, or 10 mg/kg/day.
For dogs, the compound was administered at a dose of 1, 5, or 15 mg/kg/day.

[7] = Mouse oral pharmacokinetics / exposure
[8] = Ninety-day toxicity study in rats; format: in vivo, rat
Protocol: as §2

[9] = in vivo
[10] = tested on: relapsed or refractory acute myeloid leukemia; settings: for Efficacy: Human, by comparison with efficacious exposure in mice
Description: as §1

[11] = tested on: subcutaneous MV4-11 tumors
Protocol: Xenograft was initiated from MV4-11 FLT3-dependent human leukemia cells cultured in Iscove's Modified Dulbecco's medium supplemented with 10% heat-inactivated fetal bovine serum, 100 units/mL penicillin G, 100 μg/mL streptomycin sulfate, 0.25 μg/mL amphotericin B, 2 mM glutamine, 0.075% sodium bicarbonate, and 25 μg/mL gentamicin. Tumor cells were maintained in humidified atmosphere of 95% air and 5% CO2 at 37° C. The cells were harvested during logarithmic phase growth and resuspended at a concentration of 5×10^7 cells/mL in 50% Matrigel matrix (BD Biosciences) and 50% PBS. MV4-11 cells (1×10^7) were implanted subcutaneously into the right flank of each test mouse and the growth of tumors was monitored. Twelve days later, on Day 1 of the study, mice were placed in eight groups each consisting of ten mice with individual tumor sizes of 126 to 221 mm^3 and group mean tumor size of 174 mm^3, tumor volume calculated as a product of width×width×length in mm of an MV4-11 tumor. […] Each dose of drug was given in a volume of 0.2 mL per 20 g of body weight (10 mL/kg) and was adjusted for the body weight of the animal. Each animal was sacrificed when its tumor reached the predetermined endpoint size of 1,000 mm^3 or on the last day of the study (Day 59), whichever came first.
In a follow-on study at the 10 mg/kg oral dose, tumor size was monitored for an additional 60 days after dosing was discontinued.

[12] = clinical; settings: human, in vivo; for AUC(0-t): SS AUC0-24 (ng * h/mL)
[13] = follow-on study, 10 mg/kg oral, monitored 60 days after dosing discontinued, ten animals

SMILES: CC(C)(C)c1cc(NC(=O)Nc2ccc(-c3cn4c(n3)sc3cc(OCCN5CCOCC5)ccc34)cc2)no1 [compound of Formula I, N-(5-tert-butyl-isoxazol-3-yl)-N′-{4-[7-(2-morpholin-4-yl-ethoxy)imidazo[2,1-b][1,3]benzothiazol-2-yl]phenyl}urea]
- AUC [1]: ~3.2 µM·h
- AUC(0-t) [1]: 1790 ng·h/mL
- ΔT [2]: 6 h
- deaths ([3]; Cohorts 1 and 2, one unrelated fungal infection, one congestive heart failure possibly drug related): Two
- Grade 1 (mild) drug-related adverse events: instance of cough ([3]; human, in vivo): one
- Grade 1 (mild) drug-related adverse events: instance of decreased appetite ([3]; human, in vivo): one
- Grade 1 (mild) drug-related adverse events: instance of disgeusia ([3]; human, in vivo): one
- Grade 1 (mild) drug-related adverse events: instances of abdominal distension/constipation ([3]; human, in vivo): two
- Grade 1 (mild) drug-related adverse events: instances of nausea/vomiting ([3]; human, in vivo): two
- dose limiting toxicity (DLT) ([3]; human, in vivo): reported as a DLT
- grade of other possibly drug-related AEs ([3]; human, in vivo): ≤ 2 grade
- hematological toxicity ([3]; human, in vivo): no hematological toxicity was observed
- MTD ([3]; up to 450 mg/day, either schedule): has not yet been observed
- IC50 [4]: 1000 nM
- Cmax [5]: 11.2 ng/mL
- AUC ([6]; dog, in vivo, 15 mg/kg/day, high dose, read-out: AUC at which LFT elevations were produced): ≥ 30 µM·h
- half-life ([6]; dog, in vivo, read-out: terminal half-life (converted)): 5.9 h
- weight gain suppression ([6]; high dose): 10%
- elevations in liver function tests (LFTS) ([6]; high dose (15 mg/kg/day)): 3 to 6 folds
- neutropenia ([6]; high dose (very mild anemia)): Sustained neutropenia
- clinical signs ([6]; low and middle doses (1, 5 mg/kg/day), 90 days): No significant clinical signs were observed
- SS Cp ([7]; Mouse, 1 mg/kg): 143 ng/mL
- efficacious plasma levels over the MV4;11 IC50 ([7]; mice, efficacious dose 1 mg/kg): about 800 fold
- duration of steady state exposure ([7]; mouse): 6 h
- elevations in liver function tests (LFTS) ([8]; high dose (10 mg/kg/day)): 2- to 3 folds
- neutropenia ([8]; high dose (very mild anemia)): Sustained neutropenia
- clinical signs ([8]; low and middle doses (1, 3 mg/kg/day), 90 days): No significant clinical signs were observed
- AUC at 90 days ([8]; rat, in vivo, 10 mg/kg/day, high dose, read-out: AUC at which LFT elevations were produced): ≥ 30 µM·h
- half-life ([8]; rat, in vivo, read-out: terminal half-life (converted)): 5.7 h
- duration of steady state exposure ([9]; human): 24 h
- plasma exposure versus dose ([9]; human): dose proportional
- bioavailability in humans ([9]; human, po, 12 mg): good bioavailability
- human bioavailability ([9]; 18 mg): good human bioavailability
- hematological improvement ([10]; Cohort 2, 18 mg, individual patients): major hematological improvement; also recorded: minor hematological improvement
- Efficacy ([10]; 12 mg): Possible
- Efficacy ([10]; 18 mg): Possible
- patients with hematological improvement ([10]; cohort 2 (18 mg)): three
- patients with complete response (CR) ([10]; first 45 pts): Four
- responders that were WT ([10]; human, in vivo): five
- non-responding patients with ITD mutations with initial rapid clearing of peripheral blasts ([10]; intermittent dosing): Six of the 9
- tumor response ([11]; 1 mg/kg (3 mg/m^2, p.o., QD)): tumor growth inhibition
- tumor response ([11]; 3 mg/kg p.o. QD for 28 days): tumor regression
- tumor response ([11]; 10 mg/kg p.o. QD for 28 days): tumor regression
- Efficacy ([11]; Mouse, 1 mg/kg): Yes
- complete responses [11, 13]: eight
- partial responses [11, 13]: two
- half-life ([12]; 12 mg): ~67.2 h
- AUC(0-t) ([12]; 12 mg): 757 ng·h/mL
- half-life ([12]; 18 mg): 24 to 67.2 h
- AUC(0-t) ([12]; 18 mg): 1380 ng·h/mL
